Key:
[1] = target: T1, human progesterone receptor-A [PRA] isoform (Homo sapiens, UniProt P06401); assay: Radioligand binding with human progesterone receptor cytosol ([3H]-progesterone competition); settings: PRA cytosol expressed in insect SF21 cells, [3H]Prog ~0.8 nM, 4° C. overnight; Ki by Cheng-Prusoff, KL ~4.5 nM; read-out: Ki (nM) PR
T1 construct: host or cells: insect SF21 cells (baculovirus)
T1 sequence (P06401 1-769 isoform P06401-2): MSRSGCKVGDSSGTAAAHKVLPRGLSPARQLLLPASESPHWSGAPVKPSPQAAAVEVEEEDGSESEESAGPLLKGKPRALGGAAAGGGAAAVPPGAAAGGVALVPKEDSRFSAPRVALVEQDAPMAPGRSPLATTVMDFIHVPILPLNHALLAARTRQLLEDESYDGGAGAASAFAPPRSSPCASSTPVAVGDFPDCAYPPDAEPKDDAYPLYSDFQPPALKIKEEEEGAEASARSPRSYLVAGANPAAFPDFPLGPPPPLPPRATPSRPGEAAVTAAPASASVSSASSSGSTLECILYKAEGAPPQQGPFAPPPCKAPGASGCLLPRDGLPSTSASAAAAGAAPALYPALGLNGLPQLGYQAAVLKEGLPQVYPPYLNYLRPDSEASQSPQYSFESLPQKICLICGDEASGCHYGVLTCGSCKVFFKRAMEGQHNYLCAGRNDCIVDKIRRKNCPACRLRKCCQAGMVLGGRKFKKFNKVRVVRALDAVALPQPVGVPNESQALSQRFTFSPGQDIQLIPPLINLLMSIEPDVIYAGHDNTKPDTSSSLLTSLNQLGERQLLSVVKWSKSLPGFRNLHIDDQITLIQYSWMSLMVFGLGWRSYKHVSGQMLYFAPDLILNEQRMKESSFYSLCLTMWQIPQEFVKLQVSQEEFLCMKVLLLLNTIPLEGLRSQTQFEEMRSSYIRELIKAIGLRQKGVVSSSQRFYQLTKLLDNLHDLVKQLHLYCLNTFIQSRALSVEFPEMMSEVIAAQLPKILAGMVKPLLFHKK

[2] = target: T2, human glucocorticoid receptor-α [GRX] isoform (Homo sapiens, UniProt P04150); assay: Radioligand binding with human glucocorticoid receptor cytosol ([3H]-dexamethasone competition); settings: GRX cytosol expressed in insect SF21 cells, [3H]-Dex ~0.9 nM, 4° C. overnight; Ki by Cheng-Prusoff, KL ~[…]; read-out: Ki (nM) GR
T2 construct: host or cells: insect SF21 cells (baculovirus)
T2 sequence (P04150 1-777): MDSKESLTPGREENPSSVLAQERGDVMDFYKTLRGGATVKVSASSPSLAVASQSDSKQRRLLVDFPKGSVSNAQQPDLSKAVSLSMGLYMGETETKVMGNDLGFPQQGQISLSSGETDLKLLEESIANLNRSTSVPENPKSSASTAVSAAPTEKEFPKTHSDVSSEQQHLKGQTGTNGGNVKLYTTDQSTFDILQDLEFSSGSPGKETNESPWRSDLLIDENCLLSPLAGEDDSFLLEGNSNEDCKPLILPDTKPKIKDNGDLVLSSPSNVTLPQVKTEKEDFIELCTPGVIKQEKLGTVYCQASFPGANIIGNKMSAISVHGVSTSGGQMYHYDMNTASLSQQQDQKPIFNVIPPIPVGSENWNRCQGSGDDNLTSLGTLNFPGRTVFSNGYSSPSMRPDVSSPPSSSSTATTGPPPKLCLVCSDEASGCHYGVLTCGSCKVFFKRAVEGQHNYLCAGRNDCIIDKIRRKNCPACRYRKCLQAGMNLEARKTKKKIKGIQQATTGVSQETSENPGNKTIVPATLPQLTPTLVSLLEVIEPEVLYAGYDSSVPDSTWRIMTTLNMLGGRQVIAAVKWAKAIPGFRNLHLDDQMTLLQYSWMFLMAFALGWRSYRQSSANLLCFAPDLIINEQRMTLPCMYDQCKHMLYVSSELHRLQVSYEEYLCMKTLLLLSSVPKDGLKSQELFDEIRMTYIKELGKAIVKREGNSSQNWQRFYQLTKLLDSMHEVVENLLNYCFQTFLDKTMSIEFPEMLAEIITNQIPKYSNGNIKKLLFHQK
Text: Briefly, cytosol preparations of human glucocorticoid receptor-α [GRX] isoform and human progesterone receptor-A [PRA] isoform were obtained from Ligand Pharmaceuticals (San Diego, Calif.). Both receptor cDNAs were cloned into baculovirus expression vectors and expressed in insect SF21 cells. [^3H]-dexamethasone (Dex, specific activity 82-86 Ci/mmole) and [^3H]-progesterone (Prog, specific activity 97-102 Ci/mmol) were purchased from Amersham Life Sciences (Arlington Heights, Ill.). Glass fiber type C multiscreen MAFC NOB plates were from Millipore (Burlington, Mass.). Hydroxyapatide Bio-Gel HTP gel was from Bio-Rad Laboratories (Hercules, Calif.). Tris(hydroxymethyl)aminomethane (Tris), ethylenediaminetetraacetic acid (EDTA), glycerol, dithiothreitol (DTT) and sodium moylybdate were obtained from Sigma Chemicals (St. Louis, Mo.). Microscint-20 scintillation fluid was from Packard Instrument (Meriden, Conn.).
Stock solutions (32 mM) of compounds were prepared in dimethylsulfoxide (DMSO), and 50× solutions of test compounds were prepared from the 32 mM solution with a 50:50 mixture of DMSO/ethanol. The 50× solution was then diluted with binding buffer that contained 10 mM Tri-HCl, 1.5 mM EDTA, 10% glycerol, 1 mM DTT, 20 mM sodium molybdate, pH 7.5 @4° C. 1% DMSO/ethanol was present in the binding assay.
For GR binding assays, [^3H]-Dex (˜35,000 dpm (˜0.9 nM)), GRX cytosol (˜35 μg protein), test compounds and binding buffer were mixed in a total volume of 200 μL and incubated at 4° C. overnight in a plate shaker. Specific binding was defined as the difference between binding of [^3H]Dex in the absence and in the presence of 1 μM unlabelled Dex.
After an overnight incubation, 50 μL of hydroxyapatite (25% weight/volume) slurry were added to each well and plates were incubated for 10 min at 0° C. in a plate shaker. Plates were suctioned with a Millipore vacuum manifold and each well was rinsed with 300 μL of ice-cold binding buffer. A 250 μL aliquot of Packard Microscint-20 was added to each well and the wells were shaken at room temperature for 20 minutes. The amount of radioactivity was determined with a Packard TopCount plate reader.
The Ki of test compounds was determined using the Cheng-Prusoff equation Ki=IC50/(1+[L*]/[KL]) where L* is the concentration of radioligand and KL is the dissociation constant of the radioligand determined from saturation analysis.

Row | Compound | Ki [1] | Ki [2]
1 | C=CCC1Oc2cccc(-c3ccco3)c2-c2ccc3c(c21)C(C)=CC(C)(C)N3 (stereo not drawn) [Example 326, 2,5-Dihydro-10-(2-furanyl)-5-(3-propenyl)-2,2,4-trimethyl-1H-[1]benzopyrano[3,4-f]quinoline] | ≥ 10000 nM | 228 nM
2 | C=CCC1Oc2cccc(C#N)c2-c2ccc3c(c21)C(C)=CC(C)(C)N3 (stereo not drawn) [Example 327, 2,5-Dihydro-10-cyano-5-(3-propenyl)-2,2,4-trimethyl-1H-[1]benzopyrano[3,4-f]quinoline] | 1460 nM | 9.3 nM
3 | C=CCC1Oc2cccc(CN)c2-c2ccc3c(c21)C(C)=CC(C)(C)N3 (stereo not drawn) [Example 331, 2,5-Dihydro-10-aminomethyl-5-(3-propenyl)-2,2,4-trimethyl-1H-[1]benzopyrano[3,4-f]quinolione] | ≥ 10000 nM | 142 nM
4 | C=CCC1Oc2cccc(COC)c2-c2ccc3c(c21)C(C)=CC(C)(C)N3 (stereo not drawn) [Example 332, 2,5-Dihydro-10-methoxymethyl-5-(3-propenyl)-2,2,4-trimethyl-1H-[1]benzopyrano[3,4-f]quinoline] | ≥ 10000 nM | 18 nM
5 | C=Cc1cccc2c1-c1ccc3c(c1C(c1ccccc1)O2)C(C)=CC(C)(C)N3 (stereo not drawn) [Example 333, 2,5-Dihydro-10-ethenyl-5-phenyl-2,2,4-trimethyl-1H-[1]benzopyrano[3,4-f]quinoline] | 3670 nM | 5.6 nM
6 | C#Cc1cccc2c1-c1ccc3c(c1C(c1ccccc1)O2)C(C)=CC(C)(C)N3 (stereo not drawn) [Example 334, 2,5-Dihydro-10-ethynyl-5-phenyl-2,2,4-trimethyl-1H-[1]benzopyrano[3,4-f]quinoline] | ≥ 10000 nM | 9.5 nM
7 | CC1=CC(C)(C)Nc2ccc3c(c21)C(c1ccccc1)Oc1cccc(CO)c1-3 (stereo not drawn) [Example 336, 2,5-Dihydro-10-(hydroxymethyl)-5-phenyl-2,2,4-trimethyl-1H-[1]benzopyrano[3,4-f]quinoline] | 1560 nM | 9.5 nM
8 | CC1=CC(C)(C)Nc2ccc3c(c21)C(c1ccccc1)Oc1cccc(C=O)c1-3 (stereo not drawn) [Example 337, 2,5-Dihydro-10-formyl-5-phenyl-2,2,4-trimethyl-1H-[1]benzopyrano[3,4-f]quinoline] | 702 nM | 3.3 nM
9 | COCc1cccc2c1-c1ccc3c(c1C(c1ccccc1)O2)C(C)=CC(C)(C)N3 (stereo not drawn) [Example 338, 2,5-Dihydro-10-(methoxymethyl)-5-phenyl-2,2,4-trimethyl-1H-[1]benzopyrano[3,4-f]quinoline] | ≥ 10000 nM | 61 nM
10 | C=Cc1cccc2c1-c1ccc3c(c1C(C1C=CCCC1)O2)C(C)=CC(C)(C)N3 (stereo not drawn) [Example 340] | 254 nM | 1.8 nM
11 | C=Cc1cccc2c1-c1ccc3c(c1C(C1C=C(C)CCC1)O2)C(C)=CC(C)(C)N3 (stereo not drawn) [Example 341] | ≥ 10000 nM | 2.5 nM
12 | C=CCC1Oc2cccc(SC)c2-c2ccc3c(c21)C(C)=CC(C)(C)N3 (stereo not drawn) [Example 342, 2,5-Dihydro-5-(3-propenyl)-10-methylthio-2,2,4-trimethyl-1H-[1]benzopyrano[3,4-f]quinoline] | ≥ 10000 nM | 2590 nM
13 | C=CCC1Oc2cccc(SC)c2-c2ccc3c(c21)C(C)=CC(C)(C)N3 (stereo not drawn) [Example 343, 2,5-Dihydro-5-(3-propenyl)-10-methylthio-2,2,4-trimethyl-1H-[1]benzopyrano[3,4-f]quinoline] | 4700 nM | 5.2 nM
14 | CC1=CC(C)(C)Nc2ccc3c(c21)C(c1ccccc1)Oc1cccc(OC(F)F)c1-3 (stereo not drawn) [Example 345, 10-(Difluoromethoxy)-2,5-dihydro-5-phenyl-2,2,4-trimethyl-1H-[1]benzopyrano[3,4-f]quinoline] | 3000 nM | 8.7 nM
15 | CC1=CC(C)(C)Nc2ccc3c(c21)C(c1ccccc1)Oc1cccc(OC(F)(F)Br)c1-3 (stereo not drawn) [Example 346, 10-(Bromodifluoromethoxy)-2,5-dihydro-5-phenyl-2,2,4-trimethyl-1H-[1]benzopyrano[3,4-f]quinoline] | 5110 nM | 44 nM
16 | C=C1CC(C)(C)Nc2ccc3c(c21)C(c1ccccc1)Oc1cccc(OC(F)(F)Br)c1-3 (stereo not drawn) [Example 347, 10-(Bromodifluoromethoxy)-5-phenyl-2,2-dimethyl-4-methylene-2,3,4,5-tetrahydro-1H-chromeno[3,4-f]quinoline] | ≥ 10000 nM | 128 nM
17 | COc1c(O)ccc2c1-c1ccc3c(c1C(Cc1ccccc1F)O2)C(C)=CC(C)(C)N3 (stereo not drawn) [Example 348, 2,5-Dihydro-9-hydroxy-10-methoxy-2,2,4-trimethyl-5-((2-fluorophenyl)methyl)-1H-[1]benzopyranol[3,4-f]quinoline] | 171 nM | 0.89 nM
18 | COc1cccc2c1-c1ccc3c(c1C(=Cc1cc(C)no1)O2)C(C)=CC(C)(C)N3 [Example 350, 10-Methoxy-5-(3-methylisoxazol-5-yl)methyidene-2,5-dihydro-5-phenyl-2,2,4-trimethyl-1H-[1]benzopyrano[3,4-f]quinoline] | ≥ 10000 nM | 6.22 nM
19 | COc1cccc2c1-c1ccc3c(c1C(=Cc1cccc(Cl)n1)O2)C(C)=CC(C)(C)N3 [Example 352] | ≥ 10000 nM | 58 nM
20 | CCC(C)=C1Oc2cccc(OC)c2-c2ccc3c(c21)C(C)=CC(C)(C)N3 [Example 355, 10-Methoxy-5-(1-methylpropylidene)-2,5-dihydro-5-phenyl-2,2,4-trimethyl-1H-[1]benzopyrano[3,4-f]quinoline] | 4280 nM | 27 nM
21 | COc1cccc2c1-c1ccc3c(c1C(c1ccccc1)O2)C(C)=[N+]([O-])C(C)(C)N3 (stereo not drawn) [Example 357, 2,5-Dihydro-10-methoxy-2,2,4-trimethyl-3-oxide-5-phenyl-1H-[1]benzopyrano[3,4-f]quinazoline] | ≥ 10000 nM | 59.8 nM
22 | COc1cccc2c1-c1ccc3c(c1C(c1ccccc1)O2)C(C)=NC(C)(C)N3 (stereo not drawn) [Example 358, 2,5-Dihydro-10-methoxy-2,2,4-trimethyl-5-phenyl-1H-[1]benzopyrano[3,4-f]quinazoline] | 8960 nM | 4.2 nM
23 | C=CCC1Oc2cccc(OC)c2-c2ccc3c(c21)C(C)=CC1(CCOCC1)N3 (stereo not drawn) [Example 359, 2,5-Dihydro-10-methoxy-2,2-[spiro(tetrahydro-4-pyranyl)]-4-methyl-5-ally-1H-[1]benzopyrano[3,4-f]quinoline] | 2220 nM | 11.3 nM
24 | C=CCC1Oc2cccc(OC)c2-c2ccc3c(c21)C(C)=CC(CC)(CC)N3 (stereo not drawn) [Example 361, 2,5-Dihydro-10-methoxy-2,2-diethyl-4-methyl-5-allyl-1H-[1]benzopyrano[3,4-f]quinoline] | 9140 nM | 95.7 nM
25 | C=CCC1Oc2cccc(OC)c2-c2ccc3c(c21)C(C)=C(C)C(C)(C)N3 (stereo not drawn) [Example 362, 2,5-Dihydro-10-methoxy-2,2,3,4-tetramethyl-5-allyl-1H-[1]benzopyrano[3,4-f]quinoline] | 3370 nM | 6.5 nM
26 | C=CCC1Oc2cccc(OC)c2-c2ccc3c(c21)C(CC)=CC(C)(C)N3 (stereo not drawn) [Example 363, 2,5-Dihydro-10-methoxy-2,2-dimethyl-4-ethyl-5-allyl-1H-[1]benzopyrano[3,4-f]quinoline] | 3940 nM | 5 nM
27 | C=CCC1Oc2cccc(OC)c2-c2ccc3c(c21)C=C(C)C(C)(C)N3 (stereo not drawn) [Example 364, 2,5-Dihydro-10-methoxy-2,2,3-trimethyl-5-allyl-1H-[1]benzopyrano[3,4-f]quinoline] | ≥ 10000 nM | 424 nM
